Results reported in patent US20070010670A1, “Nitrogen-containing fused ring compounds and use thereof” (Japan Tobacco Inc., priority 2004, published 2007).
pIC50: −log10 of the molar value.

target: T1, CYP2C9 (Homo sapiens, UniProt P11712); test: CYP inhibitory test using human liver microsome; format: in vitro ADME; settings: model substrate diclofenac, 37° C. 10 min, read-out: CYP2C9 inhibition IC50
T1 construct: Human liver microsome (20 mg protein/mL, 5 μL, Xenotech LLC, purchased from Lenexa KS); tissue Xenotech LLC; host or cells: human liver microsome
Description: Human liver microsome (20 mg protein/mL, 5 μL, Xenotech LLC, purchased from Lenexa KS) was suspended in 100 mM potassium phosphate buffer (70 μL, pH 7.4), mixed with a solution (0.5 μL) of the Example compound dissolved in DMSO and preincubated at 37° C. for 5 min. NADPH producing system coenzyme solution (β-nicotinamide adenine dinucleotide phosphate: 5.2 mM, D-glucose-6-phosphate: 13.2 mM, magnesium chloride: 13.2 mM, glucose-6-phosphate dehydrogenase: 1.8 U/mL) 25 μL, and a model substrate (CYP3A4: midazolam 1 mM, CYP2D6: bufuralol 1 mM, CYP2C9: diclofenac 2 mM) 0.5 μL dissolved in DMSO were added to start the reaction. After incubation at 37° C. for 10 min., acetonitrile (200 μL) containing an internal standard substance (propranolol 1 μM) was added and the mixture was centrifuged (room temperature, 3000 rpm, 20 min). The amount of the metabolite produced from each model substrate in the supernatant was measured by high performance liquid chromatography/mass spectrometry (LC/MS/MS) and each CYP enzyme activity was determined. The concentration showing 50% inhibition (IC50) was calculated relative to the enzyme activity without addition of Example compound (DMSO 0.5 μL added) as 100%.

T1 sequence (P11712 whole entry): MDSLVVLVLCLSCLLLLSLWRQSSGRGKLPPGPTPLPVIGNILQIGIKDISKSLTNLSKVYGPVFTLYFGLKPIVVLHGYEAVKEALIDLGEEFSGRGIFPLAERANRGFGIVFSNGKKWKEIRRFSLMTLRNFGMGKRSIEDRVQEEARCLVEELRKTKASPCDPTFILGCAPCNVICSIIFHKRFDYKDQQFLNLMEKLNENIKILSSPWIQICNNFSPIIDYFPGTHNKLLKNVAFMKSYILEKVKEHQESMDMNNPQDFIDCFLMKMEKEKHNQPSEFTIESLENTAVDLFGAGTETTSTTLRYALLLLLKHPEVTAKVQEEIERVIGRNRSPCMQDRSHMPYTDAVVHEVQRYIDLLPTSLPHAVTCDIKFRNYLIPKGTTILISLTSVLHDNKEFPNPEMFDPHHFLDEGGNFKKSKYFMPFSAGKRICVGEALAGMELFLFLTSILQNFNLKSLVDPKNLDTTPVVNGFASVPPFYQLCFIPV

Row | Compound | pIC50
1 | O=C(c1ccc(O)c(Cl)c1)N1CCOc2ccccc21 [Example 1, (3-chloro-4-hydroxyphenyl)-(2,3-dihydrobenzo[1,4]oxazin-4-yl)-methanone] | < 4.30
2 | O=C(c1ccc(O)c(Br)c1)N1CCOc2ccccc21 [Example 2, (3-bromo-4-hydroxyphenyl)-(2,3-dihydrobenzo[1,4]oxazin-4-yl)-methanone] | 4.43
3 | O=C(c1cc(Br)c(O)c(Br)c1)N1CCOc2ccccc21 [Example 4, (3,5-dibromo-4-hydroxyphenyl)-(2,3-dihydrobenzo[1,4]oxazin-4-yl)-methanone] | 5.05
4 | O=C(c1cc(I)c(O)c(I)c1)N1CCOc2ccccc21 [Example 5, (2,3-dihydrobenzo[1,4]oxazin-4-yl)-(4-hydroxy-3,5-diiodophenyl)-methanone] | 5.70
5 | O=C(c1cc(F)c(O)c(F)c1)N1CCOc2ccccc21 [Example 6, (3,5-difluoro-4-hydroxyphenyl)-(2,3-dihydrobenzo[1,4]oxazin-4-yl)-methanone] | < 4.30
6 | Cc1cc(C(=O)N2CCOc3ccccc32)cc(C)c1O [Example 7, (2,3-dihydrobenzo[1,4]oxazin-4-yl)-(4-hydroxy-3,5-dimethylphenyl)-methanone] | 5.40
7 | Cc1ccc2c(c1)N(C(=O)c1cc(Cl)c(O)c(Cl)c1)CCO2 [Example 12, (3,5-dichloro-4-hydroxyphenyl)-(6-methyl-2,3-dihydrobenzo[1,4]oxazin-4-yl)-methanone] | 4.66
8 | Cc1ccc2c(c1)OCCN2C(=O)c1cc(Cl)c(O)c(Cl)c1 [Example 13, (3,5-dichloro-4-hydroxyphenyl)-(7-methyl-2,3-dihydrobenzo[1,4]oxazin-4-yl)-methanone] | 4.74
9 | Cc1cccc2c1N(C(=O)c1cc(Cl)c(O)c(Cl)c1)CCO2 [Example 14, (3,5-dichloro-4-hydroxyphenyl)-(5-methyl-2,3-dihydrobenzo[1,4]oxazin-4-yl)-methanone] | 4.80
10 | O=C(c1cc(Cl)c(O)c(Cl)c1)N1CCOc2ccc3ccccc3c21 [Example 16, (3,5-dichloro-4-hydroxyphenyl)-(2,3-dihydronaphtho[2,1-b][1,4]oxazin-1-yl)-methanone] | 5.00
11 | COc1ccc2c(c1)N(C(=O)c1cc(Cl)c(O)c(Cl)c1)CCO2 [Example 17, (3,5-dichloro-4-hydroxyphenyl)-(6-methoxy-2,3-dihydrobenzo[1,4]oxazin-4-yl)-methanone] | 4.48
12 | COc1ccc2c(c1)OCCN2C(=O)c1cc(Cl)c(O)c(Cl)c1 [Example 18, (3,5-dichloro-4-hydroxyphenyl)-(7-methoxy-2,3-dihydrobenzo[1,4]oxazin-4-yl)-methanone] | 5.05
13 | CCN(CC)S(=O)(=O)c1ccc2c(c1)N(C(=O)c1cc(Cl)c(O)c(Cl)c1)CCO2 [Example 21, 4-(3,5-dichloro-4-hydroxybenzoyl)-3,4-dihydro-2H-benzo[1,4]oxazine-6-sulfonic acid diethylamide] | 4.77
14 | O=S(=O)(c1cc(Cl)c(O)c(Cl)c1)N1CCOc2ccccc21 [Example 22, 2,6-dichloro-4-(2,3-dihydrobenzo[1,4]oxazine-4-sulfonyl)phenol] | 6.00
15 | CC(C)(C)c1ccc2c(c1)N(C(=O)c1cc(Cl)c(O)c(Cl)c1)CCO2 [Example 23, (6-tert-butyl-2,3-dihydrobenzo[1,4]oxazin-4-yl)-(3,5-dichloro-4-hydroxyphenyl)-methanone] | 4.72
16 | NS(=O)(=O)c1ccc2c(c1)N(C(=O)c1cc(Cl)c(O)c(Cl)c1)CCO2 [Example 25, 4-(3,5-dichloro-4-hydroxybenzoyl)-3,4-dihydro-2H-benzo[1,4]oxazine-6-sulfonamide] | < 4.30
17 | O=C(c1cnc(O)c(Cl)c1)N1CCOc2ccccc21 [Example 29, (5-chloro-6-hydroxypyridin-3-yl)-(2,3-dihydrobenzo[1,4]oxazin-4-yl)-methanone] | < 4.30
18 | O=C(c1cc([N+](=O)[O-])c(O)c([N+](=O)[O-])c1)N1CCOc2ccccc21 [Example 30, (2,3-dihydrobenzo[1,4]oxazin-4-yl)-(4-hydroxy-3,5-dinitrophenyl)-methanone] | < 4.30
19 | O=C(c1cc(Cl)c(O)c([N+](=O)[O-])c1)N1CCOc2ccccc21 [Example 31, (3-chloro-4-hydroxy-5-nitrophenyl)-(2,3-dihydrobenzo[1,4]oxazin-4-yl)-methanone] | 4.70
20 | CC(C)c1cccc2c1OC(C(C)C)CN2C(=O)c1cc(Cl)c(O)c(Cl)c1 (centres unmarked) [Example 32, (3,5-dichloro-4-hydroxyphenyl)-(2,8-diisopropyl-2,3-dihydrobenzo[1,4]oxazin-4-yl)-methanone] | 5.00
21 | O=C(c1cc(Cl)c(O)c(Cl)c1)N1CCOc2ccc(S(=O)(=O)N3CCCC3)cc21 [Example 33, (3,5-dichloro-4-hydroxyphenyl)-[6-(pyrrolidine-1-sulfonyl)-2,3-dihydrobenzo[1,4]oxazin-4-yl]-methanone] | 5.40
22 | CCNS(=O)(=O)c1ccc2c(c1)N(C(=O)c1cc(Cl)c(O)c(Cl)c1)CCO2 [Example 34, 4-(3,5-dichloro-4-hydroxybenzoyl)-3,4-dihydro-2H-benzo[1,4]oxazine-6-sulfonic acid ethylamide] | 4.96

Results, then the compound that gave them:

Row | pIC50 | Compound
23 | 4.57 | O=C(c1cc(Cl)c(O)c(Cl)c1)N1CCOc2ccccc21 [Example 3, (3,5-dichloro-4-hydroxyphenyl)-(2,3-dihydrobenzo[1,4]oxazin-4-yl)-methanone]
24 | 4.72 | O=C(c1cc(Cl)c(O)c(Cl)c1)N1CCSc2ccccc21 [Example 8, (3,5-dichloro-4-hydroxyphenyl)-(2,3-dihydrobenzo[1,4]thiazin-4-yl)-methanone]
25 | < 4.30 | O=C(c1cc(Cl)c(O)c(Cl)c1)N1CCS(=O)(=O)c2ccccc21 [Example 10, (3,5-dichloro-4-hydroxyphenyl)-(1,1-dioxo-2,3-dihydro-1H-1λ^6-benzo[1,4]thiazin-4-yl)-methanone]
26 | 4.92 | Oc1c(Cl)cc(C(=S)N2CCOc3ccccc32)cc1Cl [Example 11, (3,5-dichloro-4-hydroxyphenyl)-(2,3-dihydrobenzo[1,4]oxazin-4-yl)-methanethione]
27 | 5.22 | Cc1cccc2c1OCCN2C(=O)c1cc(Cl)c(O)c(Cl)c1 [Example 15, (3,5-dichloro-4-hydroxyphenyl)-(8-methyl-2,3-dihydrobenzo[1,4]oxazin-4-yl)-methanone]
28 | < 4.30 | O=C(c1cc(Cl)c(O)c(Cl)c1)N1CCOc2ccc(O)cc21 [Example 19, (3,5-dichloro-4-hydroxyphenyl)-(6-hydroxy-2,3-dihydrobenzo[1,4]oxazin-4-yl)-methanone]
29 | 4.89 | O=C(c1cc(Cl)c(O)c(Cl)c1)N1CCOc2cc(O)ccc21 [Example 20, (3,5-dichloro-4-hydroxyphenyl)-(7-hydroxy-2,3-dihydrobenzo[1,4]oxazin-4-yl)-methanone]
30 | < 4.30 | O=C1COc2ccccc2N1C(=O)c1cc(Cl)c(O)c(Cl)c1 [Example 24, 4-(3,5-dichloro-4-hydroxybenzoyl)-4H-benzo[1,4]oxazin-3-one]
31 | 4.89 | O=C(c1cc(Cl)c(O)c(Cl)c1)N1CCCc2ccccc21 [Example 26, (3,5-dichloro-4-hydroxyphenyl)-(3,4-dihydro-2H-quinolin-1-yl)-methanone]
32 | 4.68 | O=C(c1cc(Cl)c(O)c(Cl)c1)N1CCCCc2ccccc21 [Example 27, (3,5-dichloro-4-hydroxyphenyl)-(2,3,4,5-tetrahydrobenzo[b]azepin-1-yl)-methanone]
